The results in this text go back to patent US20180028493A1, “INHIBITORS OF INDUCED MMP-1 PRODUCTION” (THE TRUSTEES OF COLUMBIA UNIVERSITY IN THE CITY OF NEW YORK, priority 2015, published 2018).

Values joined by “and” are separate entries in the source; they are usually repeats but may differ in a detail not shown here. Identical values can stand only once.

The nature of data set [1]: Fluoxetine quantification in lung by chromatography after oral gavage or inhalation. Format: in vivo. As to conditions: mice; for Concentration in lung sample: peak at retention time 17.08, replicates and average. The source says:
FIG. 13A. […] Mice were sacrificed, lungs lyophilized and protein homogenate prepared for chromatographic analysis.
FIG. 14A. […] Mice were sacrificed, lungs lyophilized and protein homogenate prepared for chromatographic analysis.
Mice were sacrificed, lungs lyophilized and protein homogenate prepared for chromatographic analysis.

For data set [2], the system named is MMP-1. The data set can be described thus: MMP-1 expression in SAECs treated with CSE. It is filed as cell-based. As to the method:
FIG. 5. […] Data is presented as mean+standard error.
FIG. 8. […] SAEC treatment with 5% CSE, 10 nM Fluoxitine, 10 uM Fluoxitine, and combinations of 5% CSE and Fluoxitine. […] Data is presented as mean+standard error.
In the first experiment, SAE cells were treated with 5% CSE, 10 nM Fluoxitine, 10 uM Fluoxitine, and combinations of 5% CSE and Fluoxitine (FIG. 8). […] Data is presented as mean+standard error.

Another data set deals with IRAK. The data set can be described thus: Western blot of IRAK phosphorylation in CSE treated SAE cells. Format: cell-based. A general note: In western blotting, separated proteins are transferred to a membrane and probed.
The subject of a further data set is PRAS40, BAD and GSK-3b. The data set can be described thus: Protein array analysis of cells treated with CSE. As to conditions: CSE with Fluoxetine pretreatment vs CSE. Format: cell-based. How it is done:
FIG. 10. Protein Array Analysis of Cells Treated with CSE compared to Cells Treated with CSE combined with Fluoxetine. […] The lines representing these three transcription factors, along with ERK 1/2, are labeled. Additionally, the lines compressed at the bottom of the figure represent the following transcription factors that were also tested: PC, NC, Stat1, Stat2, Akt (Thr308), Akt (Ser473), AMPKa, S6 Ribosomal Protein, mTOR, HSP27, p70 S6 Kinase, p53, p38, SAPK/JNK, PARP and Caspase-3.

In the next data set the test system is TLR-4 receptor. The data set can be described thus: TLR4 expression in CSE treated SAE cells. Format: cell-based. As to conditions: SAEC, 5% CSE, 10 uM.
In data set [3] the test system is MMP-1. The source says:
FIG. 6. The expression of MMP-1 protein in BAL from smoke rabbits. […] SM-smoke without the duloxetine, SMD-smoke with duloxetine.
(§1) Rabbits were stratified into one of four groups (Unexposed, treated with vehicle, Smoke exposed, treated with vehicle, Unexposed, treated with Duloxetine and smoke exposed treated with Duloxetine. Animals are maintained on room air or smoke exposed for 16 weeks and then sacrificed. Lung lavage is taken, lungs are fixed and sectioned and protein homogenate from lungs frozen.

The next data set deals with emphysema. As to the method: FIG. 7A. […] Duloxetine was administered 3 mg/day given once a day.
FIG. 7B. Morphometric analysis of rabbit study groups. […] NS-non-smoke without the duloxetine, NS-D-non-smoke with duloxetine, SM-smoke without the duloxetine, SM-D-smoke with duloxetine.
as §1

`CNCCC(Oc1ccc(C(F)(F)F)cc1)c1ccccc1` (stereo not drawn) [Fluoxetine]: the “Concentration in lung sample” value in data set [1] (inhalation 10 mg/kg) was 25.81 µM and 26.2 µM and 26.45 µM; in data set [1] (inhalation 10 mg/kg, mean), 26.16 µM; in data set [1] (oral gavage 10 mg/kg, 10 mg/kg), 3.712 µM and 3.673 µM and 3.98 µM; in data set [1] (oral gavage 10 mg/kg, 10 mg/kg, mean), 3.788 µM. Also, the “Levels of Fluoxetine within the lung, inhalation vs oral” value in data set [1] (10 mg/kg) is “Inhalation resulted in higher levels”. The “Detection of Fluoxetine in the lung” value in data set [1] (10 mg/kg oral gavage and 10 mg/kg inhaled) is “detection of Fluoxetine in the lung of mice”. Further, in the data set with MMP-1 [2] (SAEC, 5% CSE, 10 nM and 10 uM Fluoxetine, p<0.05), the “MMP-1 induction by CSE” value is recorded as “MMP-1 induction was attenuated”. Besides, the “Phosphorylation of IRAK (Western blot)” value in the data set on IRAK is “suppressed”. Besides, the “BAD (protein array)” value with PRAS40, BAD and GSK-3b is on record as “return to baseline”. Besides, the “GSK-3b (protein array)” value with PRAS40, BAD and GSK-3b was “return to baseline”. Further, the “PRAS40 (protein array)” value in the data set with PRAS40, BAD and GSK-3b is recorded as “return to baseline”. Moreover, the TLR-4 receptor expression entry with TLR-4 receptor is reported as “down regulation of TLR-4 receptor expression”.
With `CNCC[C@H](Oc1cccc2ccccc12)c1cccs1` [Duloxetine, (+)-(S)—N-Methyl-3-(naphthalen-1-yloxy)-3-(thiophen-2-yl) propan-1-amine], the MMP-1 expression result in the data set with MMP-1 [2] (SAEC, 5% CSE, 10 uM Duloxetine, p<0.05) is listed as “decreased MMP-1 expression”; in the data set with MMP-1 [2] (cell culture system, 10 nM) it was “block the MMP-1 expression”. Besides, in the data set with MMP-1 [3] (rabbit cigarette smoke model, 20 weeks of smoke, compound in the last four weeks), the “MMP-1 expression by ELISA of lung homogenate” value was “block the MMP-1 expression”. In the data set with MMP-1 [3] (smoke exposed rabbits), the “Expression of MMP-1 protein in BAL” value is recorded as “down regulated the expression of MMP-1 in BAL”. Also, the “Mean linear intercept (morphometric analysis)” value with emphysema (SM vs NS, NS-D, SM-D groups, p=0.0495) is “SM group had statistically significant increased mean linear intercept”. Also, in the data set on emphysema (smoke exposed rabbits, 3 mg/day once a day), the “Development of emphysema (H&E of lungs)” value was “development of emphysema was blocked”.
